One series addresses Kv11.1 (hERG) (Homo sapiens (Human), UniProt Q12809). The experiment in a line: Kv11.1 (hERG) ion channel activity (patch clamp assay), HEK293 cells transfected with hERG gene.
The next series has as its target DNA-PK (Homo sapiens (Human), UniProt P78527). The experiment in a line: DNA-PK assay (biochemical), flashplate 33P-ATP kinase assay. Put shortly: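 Reactions ran in streptavidin-coated flashplates and were halted by 200 mM EDTA, with a further 30 min at room temperature before saline washing.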
The target of series [1] is DNA-PK phosphorylation at serine 2056 (Homo sapiens (Human), UniProt P78527). Briefly: DNA-PK phosphorylation at serine 2056 (cellular), bleomycin-treated HCT116 cells, ELISA. The series is classed as cell-based. The settings on record: read-out: IC50 pDNA-PK. In a few lines: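 Chemiluminescent ELISA read-out; phospho-specific signal normalised to total DNA-PKcs. Cells (HCT116) exposed 6 h to test compound plus 10 μM bleomycin to induce double-strand breaks; DMSO control served as blank.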
In general terms: An ELISA detects its analyte on a solid surface through an enzyme-linked reagent.

[2] abbreviates: Ki [Kv1.11 hERG], hERG patch clamp assay (cells without asterisk).
Where [3] appears, read: cellular DNA-PK phosphorylation at serine 2056, HCT116.
[4] abbreviates: read-out: Ki [Kv1.11 hERG], Table 5.
The mark [5] stands for this setting: read-out: Ki [Kv1.11 hERG], patch clamp, HEK293 transfected with hERG gene.
The mark [6] stands for this setting: cellular, HCT116 cells, 10 μM bleomycin, six hours.
[7] abbreviates: Ki [Kv1.11 hERG], patch clamp, HEK293 transfected with hERG gene.
The mark [8] stands for this setting: read-out: Ki [Kv1.11 hERG], hERG patch clamp assay (cells without asterisk).

What is called Ki is the dissociation constant of the complex between target and ligand, obtained from inhibition or displacement. As a reminder, the IC50 is the point on the concentration scale where inhibition reaches its midpoint.

Read-outs that look alike come from different tables or passages of the source.

Kv11.1 (hERG), sequence (Q12809 whole entry): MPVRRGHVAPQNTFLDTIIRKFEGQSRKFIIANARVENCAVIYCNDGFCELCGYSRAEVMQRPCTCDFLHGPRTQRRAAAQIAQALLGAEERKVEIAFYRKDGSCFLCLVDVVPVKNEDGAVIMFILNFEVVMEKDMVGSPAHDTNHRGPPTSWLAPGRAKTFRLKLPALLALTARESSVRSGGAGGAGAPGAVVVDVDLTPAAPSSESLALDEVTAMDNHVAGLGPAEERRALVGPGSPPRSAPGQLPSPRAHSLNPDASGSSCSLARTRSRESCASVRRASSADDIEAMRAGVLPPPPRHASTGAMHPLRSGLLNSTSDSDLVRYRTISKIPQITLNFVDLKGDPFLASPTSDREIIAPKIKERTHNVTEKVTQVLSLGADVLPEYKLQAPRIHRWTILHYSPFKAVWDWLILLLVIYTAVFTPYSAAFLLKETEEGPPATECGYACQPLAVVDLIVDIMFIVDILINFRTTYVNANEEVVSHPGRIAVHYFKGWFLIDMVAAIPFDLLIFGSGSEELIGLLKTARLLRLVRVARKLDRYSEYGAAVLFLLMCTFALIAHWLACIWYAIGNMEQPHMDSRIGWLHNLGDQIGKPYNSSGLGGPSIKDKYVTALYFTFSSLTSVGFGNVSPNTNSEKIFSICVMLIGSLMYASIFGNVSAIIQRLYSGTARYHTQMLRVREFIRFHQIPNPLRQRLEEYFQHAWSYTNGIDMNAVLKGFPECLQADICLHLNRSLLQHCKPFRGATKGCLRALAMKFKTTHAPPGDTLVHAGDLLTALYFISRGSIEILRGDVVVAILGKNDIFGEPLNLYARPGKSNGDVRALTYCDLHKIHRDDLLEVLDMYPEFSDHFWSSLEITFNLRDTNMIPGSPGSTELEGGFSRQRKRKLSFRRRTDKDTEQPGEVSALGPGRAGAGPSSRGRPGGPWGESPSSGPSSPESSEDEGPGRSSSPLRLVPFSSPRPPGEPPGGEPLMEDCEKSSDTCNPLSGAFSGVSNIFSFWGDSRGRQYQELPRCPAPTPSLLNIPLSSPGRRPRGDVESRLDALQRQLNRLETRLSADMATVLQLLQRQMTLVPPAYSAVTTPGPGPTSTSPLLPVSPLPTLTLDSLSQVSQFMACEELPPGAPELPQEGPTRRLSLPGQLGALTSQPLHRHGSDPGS

`OC(c1cn2ccsc2n1)c1cc(-c2ncnc3cc(N4CCOCC4)ccc23)c(F)cc1F` (stereo not drawn) [Example 474, [2,4-Difluoro-5-(7-morpholin-4-yl-quinazolin-4-yl)-phenyl]imidazo-[2,1-b]thiazol-6-yl-methanol] had a Ki on Kv11.1 (hERG) (setting [2]) of 10 to 15 µM. The values for the IC50 (against DNA-PK (biochemical DNA-PK assay); in series [1] (setting [3])) were over 0.03 µM and 10 to 30 µM, respectively.
Take `Fc1ccc(C(OC(F)F)c2nccs2)cc1-c1ncnc2cc(N3CCOCC3)ccc12` (stereo not drawn) [Example 199, 4-[5-(Difluoro-methoxy-thiazol-2-ylmethyl)-2-fluoro-phenyl]-7-morpholin-4-yl-quinazoline]: the Ki on Kv11.1 (hERG) (setting [4]) was under 10 µM. In addition, the IC50 at DNA-PK (Table 5) lay in the range of 0.003 to 0.007 µM; in series [1] (Table 5, HCT116 cells), 10 to 30 µM.
As for `OC(c1cccnn1)c1cc(-c2ncnc3cc(N4CCOCC4)ccc23)c(F)cc1Cl` (stereo not drawn) [Example 47, [2-Chloro-4-fluoro-5-(7-morpholin-4-yl-quinazolin-4-yl)phenyl]-pyridazin-3-ylmethanol], on Kv11.1 (hERG) (setting [5]), the Ki was over 25 µM. Besides, the IC50 on DNA-PK (enzymatic, 5 μM ATP) is 0.003 to 0.007 µM; in series [1] (setting [6]) it was under 0.5 µM.
As to `O=c1[nH]ccnc1C(O)c1ccc(F)c(-c2ncnc3cc(N4CCOCC4)ccc23)c1` (stereo not drawn) [Example 5, 3-{[4-Fluoro-3-(7-morpholin-4-yl-quinazolin-4-yl)phenyl]-hydroxymethyl]-1H-pyrazin-2-one], the Ki on Kv11.1 (hERG) (setting [7]) is 15 to 25 µM. The IC50 against DNA-PK (enzymatic, 5 μM ATP) is over 0.03 µM; in series [1] (setting [6]), 10 to 30 µM.
As for `OC(c1ccc(F)c(-c2ncnc3cc(N4CCOCC4)ccc23)c1)c1nccn2cccc12` (stereo not drawn) [Example 356, [4-Fluoro-3-(7-morpholin-4-yl-quinazolin-4-yl)-phenyl]pyrrolo[1,2-a]-pyrazin-1-ylmethanol], at Kv11.1 (hERG) (setting [8]), the Ki was under 10 µM. Moreover, the half-maximal inhibitory concentration (IC50) on DNA-PK (biochemical DNA-PK assay) was under 0.003 µM; in series [1] (setting [3]), under 0.5 µM.
Turning to `COc1nccnc1C(O)c1cc(-c2ncnc3cc(N4CCOCC4)cnc23)c(F)cc1Cl` (stereo not drawn) [Example 232, [2-Chloro-4-fluoro-5-(7-morpholin-4-yl-pyrido[3,2-d}-pyrimidin-4-yl)-phenyl]-(3-methoxy-pyrazin-2-yl)-methanol], at Kv11.1 (hERG) (setting [8]), the Ki was over 25 µM. The IC50 against DNA-PK (biochemical DNA-PK assay) lay in the range of 0.007 to 0.03 µM; in series [1] (setting [3]), 10 to 30 µM.
In turn, `NC(=O)C(c1ccc(F)c(-c2ncnc3cc(N4CCOCC4)ccc23)c1)c1cncc(F)c1Cl` (stereo not drawn) [Example 322, 2-(4-Chloro-5-fluoro-pyridin-3-yl)-2-[4-fluoro-3-(7-morpholin-4-yl-quinazolin-4-yl)-phenyl]acetamide] yielded a Ki on Kv11.1 (hERG) (setting [2]) of 10 to 15 µM. Also, the figures for the IC50 (on DNA-PK (biochemical DNA-PK assay); in series [1] (setting [3])) were 0.003 to 0.007 µM and 0.5 to 5 µM, respectively.
Take `CC(C#N)Oc1ccc(C(O)c2cc(-c3ncnc4cc(N5CCOCC5)ccc34)c(F)cc2Cl)nn1` (single isomer, unassigned) [Example 103, 2-(6-{[2-Chloro-4-fluoro-5-(7-morpholin-4-yl-quinazolin-4-yl)-phenyl]hydroxy-methyl}pyridazin-3-yloxy)propionitrile]: the Ki at Kv11.1 (hERG) (setting [5]) was over 25 µM. Besides, the IC50 at DNA-PK (enzymatic, 5 μM ATP) is over 0.03 µM; in series [1] (setting [6]) it was 10 to 30 µM.
On to `NC(=O)C(c1ccc(F)c(-c2ncnc3cc(N4CCOCC4)ccc23)c1)c1nnc(Cl)c2sccc12` (stereo not drawn) [Example 291, 2-(7-Chlorothieno-[2,3-d}pyridazin-4-yl)-2-[4-fluoro-3-(7-morpholin-4-yl-quinazolin-4-yl)-phenyl]acetamide], for which the Ki on Kv11.1 (hERG) (setting [8]) was under 10 µM. Besides, the figures for the IC50 (on DNA-PK (biochemical DNA-PK assay); in series [1] (setting [3])) were 0.003 to 0.007 µM and 5 to 10 µM, respectively.
Regarding `NC(=O)C(c1cc(-c2ncnc3cc(N4CCOCC4)ccc23)c(F)cc1Cl)c1cccc2nncn12` (stereo not drawn) [Example 298, 2-[2-Chloro-4-fluoro-5-(7-morpholin-4-yl-quinazolin-4-yl)-phenyl]-2-[1,2,4]-triazolo[4,3-a]pyridin-5-ylacetamide], the Ki on Kv11.1 (hERG) (setting [8]) is over 25 µM. Also, the results for the IC50 (against DNA-PK (biochemical DNA-PK assay); in series [1] (setting [3])) were 0.007 to 0.03 µM and 10 to 30 µM, respectively.
On the same counts, the results for `Cc1nccnc1[C@H](O)c1ccc(F)c(-c2ncnc3cc(N4CCOCC4)cnc23)c1` [Example 234, (R)-[4-Fluoro-3-(7-morpholin-4-yl-pyrido[3,2-d}-pyrimidin-4-yl)-phenyl]-(3-methyl-pyrazin-2-yl)-methanol] are over 25 µM, under 0.003 µM and under 0.5 µM.
In turn, `COc1ccc(C(O)c2cc(-c3ncnc4cc(N5CCOCC5)sc34)c(F)cc2Cl)nn1` (stereo not drawn) [Example 128, (2-Chloro-4-fluoro-5-(6-morpholin-4-ylthieno[3,2-d}-pyrimidin-4-yl)-phenyl]-(6-methoxy-pyridazin-3-yl)-methanol] showed a Ki on Kv11.1 (hERG) (setting [7]) of 15 to 25 µM. For the same compound, the IC50 against DNA-PK (enzymatic, 5 μM ATP) is under 0.003 µM; in series [1] (setting [6]), 0.5 to 5 µM.
On to `COC(c1ccc(F)c(-c2ncnc3cc(N4CCOCC4)ccc23)c1)c1nccs1` (stereo not drawn) [Example 177, 4-[2-Fluoro-5-(-methoxythiazol-2-ylmethyl)phenyl]-7-morpholin-4-yl-quinazoline], for which the Ki on Kv11.1 (hERG) (setting [4]) was over 25 µM. Further, the IC50 against DNA-PK (Table 5) was in the range of 0.003 to 0.007 µM; in series [1] (Table 5, HCT116 cells) it was 10 to 30 µM.
Consider `Cc1cccnc1C(O)c1ccc(F)c(-c2ncnc3cc(N4CCOCC4)ccc23)c1` (stereo not drawn) [Example 472, [4-Fluoro-3-(7-morpholin-4-yl-quinazolin-4-yl)-phenyl]-(3-methyl-pyridin-2-yl)methanol], for which, at Kv11.1 (hERG) (setting [8]), the Ki was over 25 µM. Besides, the IC50 against DNA-PK (biochemical DNA-PK assay) was 0.003 to 0.007 µM; in series [1] (setting [3]), under 0.5 µM.
Consider `COc1ccc([C@@H](O)c2ccc(F)c(-c3ncnc4cc(N5CCOCC5)ccc34)c2)nn1` [Example 72, (S)-[4-Fluoro-3-(7-morpholin-4-yl-quinazolin-4-yl)phenyl]-(6-methoxypyridazin-3-yl)methanol], for which, on Kv11.1 (hERG) (setting [5]), the Ki is over 25 µM. Besides, the IC50 was under 0.003 µM on DNA-PK (enzymatic, 5 μM ATP) and 0.5 to 5 µM in series [1] (setting [6]).
For `OC(c1cc(F)c(F)c(-c2ncnc3cc(N4CCOCC4)ccc23)c1)c1nccs1` (stereo not drawn) [Example 178, [3,4-Difluoro-5-(7-morpholin-4-yl-quinazolin-4-yl)-phenyl)thiazol-2-yl-methanol], the Ki at Kv11.1 (hERG) (setting [4]) is over 25 µM. Besides, the IC50 against DNA-PK (Table 5) was under 0.003 µM; in series [1] (Table 5, HCT116 cells), 0.5 to 5 µM.
On Kv11.1 (hERG) (setting [2]), `NC(=O)C(c1ccc2nccn2n1)c1cc(-c2ncnc3cc(N4CCOCC4)ccc23)c(F)cc1Cl` (stereo not drawn) [Example 323, 2-[2-Chloro-4-fluoro-5-(7-morpholin-4-yl-quinazolin-4-yl)-phenyl]-2-imidazo-[1,2-b]pyridazin-6-yl-acetamide] displayed an inhibitory constant (Ki) of 15 to 25 µM. For the same compound, the results for the IC50 (against DNA-PK (biochemical DNA-PK assay); in series [1] (setting [3])) were 0.003 to 0.007 µM and 0.5 to 5 µM, respectively.
Turning to `OC(c1cccnn1)c1cc(-c2ncnc3cc(N4CCOCC4)ccc23)ccc1Cl` (single isomer, unassigned) [Example 469, [2-Chloro-5-(7-morpholin-4-yl-quinazolin-4-yl)-phenyl]pyridazin-3-yl-methanol], the Ki on Kv11.1 (hERG) (human, HEK293 cells stably transfected with the hERG gene, Ki [Kv1.11 hERG], hERG patch clamp assay (cells without asterisk)) lay in the range of 10 to 15 µM. In addition, the half-inhibitory concentration (IC50) against DNA-PK (biochemical DNA-PK assay) is over 0.03 µM; in series [1] (setting [3]), 10 to 30 µM.
On to `Cc1nccnc1[C@H](O)c1ccc(F)c(-c2ncnc3cc(N4CCOCC4)ccc23)c1` [Example 83, (R)-[4-Fluoro-3-(7-morpholin-4-yl-quinazolin-4-yl)-phenyl]-(3-methyl-pyrazin-2-yl)methanol], for which the Ki on Kv11.1 (hERG) (setting [5]) is over 25 µM. Also, the half-maximal inhibitory concentration (IC50) is under 0.003 µM against DNA-PK (enzymatic, 5 μM ATP) and under 0.5 µM in series [1] (setting [6]).
Regarding `Cc1cc(F)c(-c2ncnc3cc(N4CCOCC4)ccc23)cc1C(O)c1nccs1` (stereo not drawn) [Example 210, [4-Fluoro-2-methyl-5-(7-morpholin-4-yl-quinazolin-4-yl)-phenyl]thiazol-2-ylmethanol], the Ki at Kv11.1 (hERG) (setting [5]) was over 25 µM. Also, the IC50 lay in the range of 0.003 to 0.007 µM at DNA-PK (enzymatic, 5 μM ATP) and 0.5 to 5 µM in series [1] (setting [6]).
`OC(c1cccnn1)c1cc(-c2ncnc3cc(N4CCOCC4)ccc23)c(F)cc1Cl` (single isomer, unassigned) [Example 29, [2-Chloro-4-fluoro-5-(7-morpholin-4-yl-quinazolin-4-yl)phenyl]-pyridazin-3-ylmethanol] registered a Ki on Kv11.1 (hERG) (human, HEK293 cells stably transfected with the hERG gene, Ki [Kv1.11 hERG], patch clamp, HEK293 transfected with hERG gene) of 15 to 25 µM. The IC50 against DNA-PK (enzymatic, 5 μM ATP) fell in the range of 0.007 to 0.03 µM; in series [1] (setting [6]) it was 10 to 30 µM.
On to `OC(c1cc(-c2ncnc3cc(N4CCOCC4)ccc23)ccc1F)c1nccn2ccnc12` (stereo not drawn) [Example 372, [2-Fluoro-5-(7-morpholin-4-yl-quinazolin-4-yl)-phenyl]imidazo-[1,2-a]pyrazin-8-yl-methanol], for which, on Kv11.1 (hERG) (setting [8]), the Ki was over 25 µM. The IC50 fell in the range of 0.007 to 0.03 µM on DNA-PK (biochemical DNA-PK assay) and 0.5 to 5 µM in series [1] (setting [3]).
As to `OC(c1ccc(F)c(-c2ncnc3cc(N4CCOCC4)ccc23)c1)c1ncccc1C(F)(F)F` (stereo not drawn) [Example 80, [4-Fluoro-3-(7-morpholin-4-yl-quinazolin-4-yl)-phenyl]-(3-trifluoro-methylpyridin-2-yl)-methanol], on Kv11.1 (hERG) (setting [5]), the Ki is over 25 µM. Further, the IC50 at DNA-PK (enzymatic, 5 μM ATP) lay in the range of 0.003 to 0.007 µM; in series [1] (setting [6]), 0.5 to 5 µM.
In the case of `COc1cnc(C(O)c2ccc(F)c(-c3ncnc4cc(N5CCOCC5)ccc34)c2)nc1` (stereo not drawn) [Example 67, [4-Fluoro-3-(7-morpholin-4-yl-quinazolin-4-yl)phenyl]-(5-methoxypyrimidin-2-yl)methanol], the Ki on Kv11.1 (hERG) (setting [5]) is over 25 µM. In addition, the IC50 was 0.007 to 0.03 µM on DNA-PK (enzymatic, 5 μM ATP) and 5 to 10 µM in series [1] (setting [6]).

Source of the values: patent US9732094B2, “Arylquinazolines” (Merck Patent GmbH, priority 2013, dated 2017).
